Where “and” joins values, the source holds several entries; their conditions need not be identical. Equal values may be shown once.
Experiments:
[1] = molecular target: 3R/4R-tau aggregates in AD tissue (Homo sapiens, UniProt P10636); assay: Competition binding vs [^3H]OXD-2115 in AD tissue homogenates; conditions: vs [^3H]OXD-2115, AD tissue homogenates, n = 1
Protocol: (§1) Fresh frozen, autopsy-confirmed human PD anterior cingulate cortex brain tissue blocks (1 cm^3) were obtained from Dr. Thomas Beach at Banner/Sun Health AZ with funding from the Michael J. Fox Foundation and contained frequent α-synuclein aggregates and no other detectable aggregated amyloid species. The frozen tissue blocks were prepared for the binding assays as previously described[47],[48], except that equal quantities of the homogenates of three AD brains (AD1-AD3, Table S1) were pooled, as were homogenates from three PSP brains (PSP1-PSP3), three CBD brains (CBD1-CBD3), three Pick’s brains (PiD1-PiD3), and 4 PD brains (PD1-PD4) in order to help minimize the inter-subject variability within the different neuropathological groups. Individual subcortical brain tissues from a PSP subject (PSP4) and a CBD subject (CBD4), as well as with the middle frontal cortex of a control subject, were prepared for the binding assays as previously described[47],[48].
(§2) The equilibrium inhibition constant (Ki) values of the unlabeled compounds were determined versus tritium-labeled radioligands using published methods.

[2] = molecular target: T1, 4R-tau aggregates in PSP tissue (Homo sapiens, UniProt P10636); assay: Competition binding vs [^3H]OXD-2115 in PSP tissue homogenates; conditions: vs [^3H]OXD-2115, PSP tissue homogenates, n = 1
T1 construct: tissue Neurodegenerative Disease Brain Bank at UCSF
T1 sequence (P10636 1-441 isoform P10636-8): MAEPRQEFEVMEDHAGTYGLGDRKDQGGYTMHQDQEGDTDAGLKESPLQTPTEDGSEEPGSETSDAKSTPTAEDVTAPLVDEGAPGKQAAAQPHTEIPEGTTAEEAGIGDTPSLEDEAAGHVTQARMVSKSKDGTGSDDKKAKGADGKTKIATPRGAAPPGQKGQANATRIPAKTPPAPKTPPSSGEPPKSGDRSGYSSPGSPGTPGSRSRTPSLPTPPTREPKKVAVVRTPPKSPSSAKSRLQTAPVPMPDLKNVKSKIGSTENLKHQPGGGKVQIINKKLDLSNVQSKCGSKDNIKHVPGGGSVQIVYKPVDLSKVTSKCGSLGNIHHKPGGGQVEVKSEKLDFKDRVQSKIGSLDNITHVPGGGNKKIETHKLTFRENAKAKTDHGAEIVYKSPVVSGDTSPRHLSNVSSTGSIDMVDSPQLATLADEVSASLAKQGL
Protocol: as §1, §2

[3] = Mouse pharmacology (DMPK): plasma and brain concentrations, brain-to-plasma ratios after i.v. administration; format: in vivo, mice
Protocol: Ex vivo evaluation of the BBB permeability of OXD-2314 was performed by measuring the brain-to-plasma ratios in mice. Compound concentrations in plasma (0.03 h, 0.17 h, 0.5 h, 1 h, and 2 h; n = 3 per timepoint) were compared with concentrations in brain (0.03 h, 0.17 h, 1 h, and 2 h; n = 3 per timepoint) for both OXD-2115 and OXD-2314. The total brain-to-plasma concentration ratios were 1.7 for OXD-2314 and 0.1 for OXD-2115. The free concentration ratio for brain-to-plasma was 0.6 for OXD-2314 and 0.002 for OXD-2115 (Figs. S3–S8 and Tables S2, S3).

[4] = Dynamic PET imaging with [^18F]OXD-2314 in rhesus macaque (baseline and displacement); format: in vivo
Protocol: Dynamic PET imaging was performed in a rhesus macaque (macaca mulatta) monkey following the injection of [^18F]OXD-2314 at baseline (104.9 MBq, n = 1) and was repeated in a second [^18F]OXD-2314 study (115.8 MBq, n = 1) where a displacing dose of unlabeled OXD-2314 (0.5 mg/kg) was administered 10 min after [^18F]OXD-2314 injection to verify the absence of specific binding in NHP brain. Venous blood samples were drawn to characterize the metabolic fate of [^18F]OXD-2314 in the macaque. Dynamic [^18F]OXD-2314 PET imaging was also performed in a male (106.6 MBq, n = 1) and a female (115.8 MBq, n = 1) baboon (papio anubis), and venous blood samples were drawn in both baboons to characterize potential effects of sex on radiometabolism. Bilateral regions of interest were defined on 5–8 contiguous axial image planes for the lateral temporal cerebral cortex, cerebellum, striatum, and whole brain, which were used to sample dynamic [^18F]OXD-2314 PET images to determine the time-varying radioactivity concentration expressed in SUV units. [^18F]OXD-2314 readily entered macaque brain (whole brain peak ~2.2 SUV at ~2 min) and distributed uniformly throughout cortical and subcortical grey matter regions (Fig. 5A). […] Radiometabolite analysis of macaque venous blood identified only one, polar radiometabolite, which increased from 37% at 10 min to 77% at 90 min post-injection and was not likely brain penetrant (Figs. S19, S20).
NHP imaging studies in a male (13 kg) macaca mulata monkey and male (25.7 kg) and female (14.2 kg) papio anubis baboons were carried out in accordance with the guidelines set forth by the Institutional Animal Care and Use Committee at the University of Pittsburgh. Additional details regarding the maintenance of an active environmental enrichment program for the housed NHPs are described in Supplemental Information. Dynamic [^18F]OXD-2314 PET imaging of the brains of the isoflurane anesthetized NHPs was performed using a Siemens Biograph mCT Flow 64-4 R PET/CT scanner ([…], maximum intrinsic spatial resolution of 4.3 mm FWHM[53]. Following a low-dose CT scan for attenuation correction of PET emission data, [^18F]OXD-2314 was injected intravenously and emission data were acquired in list-mode for a period of 90 min. Emission data were binned into a dynamic series of 32 frames (20 sec-10 min) and reconstructed using filtered back projection with Fourier rebinning (FORE + FBP) with standard corrections applied that included attenuation, scatter, electronics dead-time, and physical decay.

Sequence of 3R/4R-tau aggregates in AD tissue (P10636 623-695 limits assumed): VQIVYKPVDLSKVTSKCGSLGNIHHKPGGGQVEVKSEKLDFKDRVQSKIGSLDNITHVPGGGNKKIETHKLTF

| Ki [1] [nM] | Ki [2] [nM] | Conc. (ng/ml), brain ([3]; mouse brain, t=1 hr after i.v. administration, individual animals, LC-MS/MS 341.7500>256.1500, re-run Brain_2) [ng/mL] | Conc. (ng/ml), brain ([3]; mouse brain, t=2 hr after i.v. administration, individual animals, LC-MS/MS 341.7500>256.1500, re-run Brain_2) | Kp,uu (unbound brain-to-plasma ratio) ([3]; mouse, brain, iv, mice, i.v., AUC brain:plasma, FREE, read-out: free concentration ratio brain-to-plasma) | Kp ([3]; mouse, brain, iv, mice, i.v., AUC brain:plasma, TOTAL, read-out: total brain-to-plasma concentration ratio) | concentration at 1 h ([3]; mouse, brain, iv, mouse brain, t=1 hr after i.v. administration, individual animals, LC-MS/MS 341.7500>256.1500, re-run Brain_2, read-out: Conc. (ng/ml), brain) [ng/mL] | Structure (SMILES) | initial brain uptake ([4]; NHP) [SUV] | ratio initial maximum to late minimum brain radioactivity ([4]; NHP) | 2:90 min radioactivity concentration ratio ([4]; macaque whole brain) | time of whole brain peak ([4]; macaque, baseline) | whole brain clearance half-time ([4]; macaque, baseline) | whole brain peak uptake ([4]; macaque, baseline, n = 1) |
| --- | --- | --- | --- | --- | --- | --- | --- | --- | --- | --- | --- | --- | --- |
| 8.8 | 4.8 | 0.851 | 0.647 ng/mL and 0.5 ng/mL and 0.3 ng/mL | 0.6 | 1.7 | 1 | COC1CCCN(c2ccc(-c3cc4cc(O)ccc4[nH]3)c(F)n2)C1 (stereo not shown) [OXD-2314, 2-(2-fluoro-6-(3-methoxypiperidin-1-yl)pyridin-3-yl)-1H-indol-5-ol] |  |  |  |  |  |  |
|  |  |  |  |  |  |  | CO[C@H]1CCCN(c2ccc(-c3cc4cc(O)ccc4[nH]3)c([18F])n2)C1 [[^18F]OXD-2314] | > 2 | ~ 4 | 3.9 | ~ 2 min | ~ 22 min | ~ 2.2 SUV |

Source: PMC11178805, “Ligand-based design of [^18F]OXD-2314 for PET imaging in non-Alzheimer’s disease tauopathies” (Nature Communications, 2024)
